# Earlier results as cited in US10195206B2, “Two-component pharmaceutical composition for the treatment of pain” (BRIDGE THERAPEUTICS, INC., priority 2005, dated 2019).
# Tests used:
# [1] = in vivo
# [2] = in vivo; remark: listed apart in the source
Structure (SMILES),half-life [1],solubility in water,oral and/or gastrointestinal bioavailability [2]
"CO[C@]12CCC3(C[C@@H]1[C@](C)(O)C(C)(C)C)[C@H]1Cc4ccc(O)c5c4[C@@]3(CCN1CC1CC1)[C@H]2O5.Cl [Buprenorphine, 17-(cyclopropylmethyl)-α-(1,1-dimethylethyl)-4,5-epoxy-18,19-dihydro-3-hydroxy-6-methoxy-α-methyl-6,14-ethenomorphian-7-methanol]",approximately 36 hours,limited solubility,poor
"CN1C(C(=O)Nc2ccccn2)=C(O)c2ccccc2S1(=O)=O [Piroxicam, 4-hydroxyl-2-methyl-N-2-pyridinal-2H-1,2-benzothiazine-3-carboximide 1,1-dioxide]",approximately 50 hours,sparingly soluble,–
